Data reported in patent publication US20230277486A1, “COMPOSITIONS FOR THE TREATMENT OF NON-ARTICULAR CARTILAGE-[…] CONDITIONS” (priority 2019, published 2023).

Assays:
Type in all cases: cell-based
[1] = system: Primary human osteoblasts; test: qPCR gene expression in osteoblast cultures exposed to PCA
Protocol: (§1) Cells: Primary human osteoblasts were obtained from Cell Applications, San Diego, Calif.
(§2) Cell culture: Osteoblasts were expanded in culture using the protocol provided by Cell Applications. Human Osteoblast Basal Media was supplemented with Human Osteoblast Growth Supplement (Cell Applications) containing 0.15 g/L calcium. Human Osteoblast Differentiation Media was purchased from Cell Applications, containing 0.20 g/L calcium.
(§3) Treatment: Osteoblasts were cultured in Human Osteoblast Basal Media and exposed to Protocatechuic acid (PCA) for up to 12 days at concentrations ranging from 1 μmolar to 100 μM. Osteoblasts were cultured without any PCA as negative control. Osteoblasts were cultured without any PCA in osteogenic media (Human Osteoblast Differentiation Media) as positive control (osteogenic media induces osteogenesis in osteoblasts). Each experiment was conducted in triplicate. Media were changed every 3 days.
Gene expression: Pro-osteogenic and anti-osteogenic gene expression was measured using qPCR on mRNA extracted from osteoblast cultures. Gene expression was computed as fold-change relative to control group (osteoblasts cultured without any PCA).

[2] = system: Primary human osteoblasts; test: Calcium deposition in osteoblast cultures, Alizarin red stain; conditions: PCA 1 μM to 100 μM, 12 days of culture
Protocol: as §1, §2, §3
Calcium deposition: Osteoblast cultures were tested for calcium deposition using Alizarin red stain.

[3] = system: Primary human mesenchymal stem cells (MSC); test: qPCR osteogenic gene expression in MSC cultures exposed to PCA; conditions: three cell lines, PCA 200 μM to 2000 μM, 14 or 21 days
Protocol: (§4) Cells: Primary human mesenchymal stem cells (MSC) were obtained from RoosterBio Inc., Frederick, Md.; ATCC, Manassas, Va.; and Cell Applications, San Diego, Calif.
(§5) Cell culture: MSC were expanded in culture, using the protocol provided by the respective suppliers, before being subjected to the experimental conditions.
(§6) Treatment: MSC were cultured in supplier-provided culture media and exposed to Protocatechuic acid (PCA) for 14 or 21 days at concentrations ranging from 200 μM to 2000 μM (2 mM). MSC were cultured without any PCA as negative control. To serve as positive control, MSC were cultured without any PCA in osteogenic media (Human Osteoblast Differentiation Media, Cell Applications, Catalog number: 417D-250). Osteogenic media is commonly used to induce osteogenesis. Each experiment was conducted in triplicate. Media was changed twice a week.
Gene expression: Osteogenic gene expression was measured using qPCR on mRNA extracted from MSC cultures. Gene expression was computed as fold-change relative to the control group (MSC cultured without any PCA). MSC cultured in osteogenic media was used as positive control as this protocol is commonly used to induce osteogenesis.

[4] = system: Primary human mesenchymal stem cells (MSC); test: Calcium deposition in MSC cultures, Alizarin red stain at 21 days; conditions: three cell lines, PCA 200 μM to 2000 μM, FIG. 8
Protocol: as §4, §5, §6
Calcium deposition: MSC cultures were tested for calcium deposition using Alizarin red stain at 21 days.

For `O=C(O)c1ccc(O)c(O)c1` [PCA, protocatechuic acid], the “IL-1β gene expression (anti-osteogenic gene)” value ([1]; PCA 1 μM to 100 μM, FIG. 2) was “increasing”, the “IL-6 gene expression (anti-osteogenic gene)” value ([1]; PCA 1 μM to 100 μM, FIG. 2) was “increasing” and the “MMP-1 gene expression (anti-osteogenic gene)” value ([1]; PCA 1 μM to 100 μM, FIG. 2) was “suppressing”. The “TNF-α gene expression (anti-osteogenic gene)” value ([1]; PCA 1 μM to 100 μM, FIG. 2) was “suppressing”, the “BMP-6 expression, dose dependence” value ([1]; PCA 1 μM to 100 μM, FIG. 3) was “dose-dependent effect” and the “osteogenic gene expression (IBSP, SPP1, TNAP, RunX2)” value ([1]; PCA 1 μM to 100 μM, up to 12 days, fold-change relative to control without PCA, FIG. 1) was “dose-dependent effect on all osteogenic genes tested”. For the same compound, the “expression of osteogenic genes versus positive control (osteogenic media)” value ([1]; PCA 100 μmolar (highest dose)) was “even higher than that measured in the positive control”, the “BMP-6 expression relative to negative control” value ([1]; PCA 100 μmolar, FIG. 3) was “greater than 2 fold” and the calcium deposition [2] was “did not increase deposition of calcium by detectable amounts”. The RUNX2 expression ([3]; FIG. 5) was “increased RUNX2 at most dose levels”, the “RUNX2 expression versus positive control (osteogenic media)” value ([3]; FIG. 5) was “mostly higher than the positive control” and the “expression of alkaline phosphatase (TNAP)” value ([3]; FIG. 6) was “increased the expression of alkaline phosphatase relative to negative control but not greater than the osteogenic conditions”. For the same compound, the “expression of bone sialoprotein (IBSP)” value ([3]; FIG. 7) was “did not increase”, the “expression of osteopontin (SPP1)” value ([3]; versus positive control (osteogenic media), FIG. 4) was “even higher than that measured in the positive control” and the deposition of calcium [4] was “visibly increased the deposition of calcium in one of the three cell lines”.
